Data set [1] has as its system Pseudomonas aeruginosa (PAO1-WT). Put plainly: MIC determination by two-fold serial dilution in 96-well microtiter plates. It is filed as cell-based. Conditions: Table 1, 37° C., 72 hours, read-out: MIC, Gram negative P. aeruginosa. As for the experimental part:
(§1) For the compounds above, respective minimum inhibitory concentration (MIC) values against the Gram-positive S. aureus, E. faecalis, Gram-negative E. coli and P. aeruginosa were determined, respectively, by standard methods. […] Cell viability was verified by serial dilution and plating on MH agar. Both aqueous and fresh media positive controls were performed for each trial. Overnight bacterial cultures of Staphylococcus aureus (SH1000), Enterococcus faecalis (OG1RF), Escherichia coli (MC4100), and Pseudomonas aeruginosa (PAO1-WT) were grown in Mueller-Hinton broth at 37° C., with all but E. faecalis under shaking Overnight cultures were diluted to approximately 10^6 cfu/mL as determined by OD measurement at 640 nm and plating on MH agar.
(§2) Each compound was serially diluted two-fold with water from 1 mM down to 1 μM yielding twelve dilutions per compound. In triplicate, 100 µL of each dilution were pipetted into the appropriate well of a 96-well microtiter plate, and then […] of overnight bacterial culture diluted to ca. 10^6 cfu/mL were inoculated into each well. Microtiter plates were incubated at 37° C. for 72 hours. Up to seven compounds were tested against one bacterial species at twelve decreasing concentrations per 96-well plate.

For data set [2], the system named is Enterococcus faecalis (OG1RF). Described as above. It is filed as cell-based. The note with it: Table 1, 37° C., 72 hours, read-out: MIC, Gram positive E. faecalis. How it is done: as §1, §2
In data set [3] the test system is Escherichia coli (MC4100). The data set is described as above. It is filed as cell-based. The note with it: read-out: MIC, Gram negative E. coli. How it is done: as §1, §2
In data set [4] the test system is Staphylococcus aureus (SH1000). The description is as above. Type of data set: cell-based. The note with it: Table 1, 37° C., 72 hours, read-out: MIC, Gram positive S. aureus. As for the experimental part: as §1, §2
The subject of another data set is S. aureus. Conditions: pH 7.4; cited from earlier work.
The next data set concerns B. subtilis. Conditions: pH 7.4; cited from earlier work.
The test system of data set [5] is S. aureus, E. faecalis, E. coli and P. aeruginosa. Put plainly: MIC determination, statements across the bacteria tested. It is filed as cell-based. How it is done:
as §1, §2

Data set [6] has as its system pre-established Staph aureus biofilms. The data set is described as follows: visual disruption of pre-established biofilms. The note with it: disperses biofilms. It is filed as cell-based. How it is done: Compound (12,2,0,2,12) causes a visual disruption of pre-established Staph aureus biofilms at 25 μM (micromolar). Thus it at least disperses biofilms at 25 μM.
Another data set is described as follows: water solubility. It is filed as physicochemical.
The mark [7] stands for this setting: S. aureus, E. faecalis, E. coli, P. aeruginosa, read-out: MIC values against all four bacterial species tested.

Like-named read-outs stand apart in the source and are kept apart here.

With `CCCCCCCCCCCCCCCCCCCC[N+](C)(C)CC[N+](C)(C)CCCCCCCCCCCCCCCC` [(20, 2, 16)], the MIC was found to be 63 µM in data set [1] (Pseudomonas aeruginosa, PAO1); 32 µM in [2] (Enterococcus faecalis); 63 µM in [3] (Escherichia coli, 72 h); 16 µM in [4] (Staphylococcus aureus).
Take `N=C(N=C(N)N)Nc1cccc(NC(=N)N=C(N)N)c1` [Compound 11a]: the “MBIC S. aureus” value with S. aureus was 300 µM. For the same compound, the “MBIC B. subtilis” value with B. subtilis is 30 µM.
With `N=C(N=C(N)N)Nc1cccc(NC(=N)N=C(N)N)c1` [Compound 11b], in the data set on S. aureus, the “MBIC S. aureus” value was 750 ± 250 µM. Also, the “MBIC B. subtilis” value in the data set on B. subtilis is 7 ± 3 µM.
On to `CCCCCCCCCCCC[N+](C)(C)CCN(C)CC[N+](C)(C)CCCCCCCCCCCC.[Br-].[Br-]` [Compound 12, 2, 0, 2, 12], for which the MIC in data set [5] (setting [7]) was no more than 4 µM. Besides, in data set [6], the “concentration causing visual disruption of pre-established biofilms” value was found to be 25 µM.
Regarding `CCCCCCCCCCCC[N+](C)(C)CC[N+](C)(C)CCCCCCCCCC` [Compound (12, 2, 10)], in [5] (setting [7]), the MIC is no more than 2 µM.
As for `CCCCCCCCCCCCC[N+](C)(C)CC[N+](C)(C)CCCCCCCCCC` [Compound (13, 2, 10)], the minimum inhibitory concentration (MIC) in data set [1] (Pseudomonas aeruginosa, PAO1) came to 2 µM; in data set [2] (Enterococcus faecalis) it was 1 µM; in data set [3] (Escherichia coli, 72 h) it was 2 µM; in [4] (Staphylococcus aureus) it was 1 µM.
Regarding `CCCCCCCCCCCCCCCCCC[N+](C)(C)CCN(C)C.[Br-]` [Compound (18, 2, 0)], the minimum inhibitory concentration (MIC) in data set [1] (Pseudomonas aeruginosa, PAO1) is 63 µM; in data set [3] (Table 1, 37° C., 72 hours), 63 µM; in data set [5] (S. aureus and E. faecalis, read-out: MIC values versus Gram positive bacteria), 2 to 4 µM.
On to `CCCCCCCCCCCCCCCCCC[N+](C)(C)CC[N+](C)(C)CCCCCCCC` [Compound (18, 2, 8)], for which, in the data set “water solubility”, the water solubility entry is “fully water soluble”.
With `CCCCCCCCCCCCCCCCCCCC[N+](C)(C)CC[N+](C)(C)CCCCCCCC` [Compound (20, 2, 8)], in “water solubility”, the water solubility result is “fully water soluble”.
On to “N-alkyl-N-benzyl-N,N-dimethylammonium chloride [benzalkonium chloride, reference compound]”, for which the minimum inhibitory concentration (MIC) turned out to be 63 µM in data set [1]; 8 µM in data set [2]; 32 µM in data set [3] (Table 1, 37° C., 72 hours); 8 µM in data set [4]. For the same compound, in data set [5] (compared with compound (12,2,10)), the fold less activity is listed as 4-32 fold.

As usually defined, the MIC is the lowest concentration that inhibits growth of the organism.

The values are drawn from patent US20160278375A1, “BISCATIONIC AND TRISCATIONIC AMPHIPHILES AS ANTIMICROBIAL AGENTS” (Temple University of the Commonwealth System of Higher …, priority 2013, published 2016).
